Data taken from ChEMBL document CHEMBL4342454, “Unraveling Structures Containing Highly Conjugated Pyrrolo[4,3,2-de]quinoline Cores That Are Deficient in Diagnostic Proton NMR Signals” (J Nat Prod, 2020).
Active and inactive are the calls of the source.

Legend:
[1] = test system: Yersinia pseudotuberculosis; experiment: Inhibition of Yersinia pseudotuberculosis Type 3 secretion system protein by SDS-PAGE analysis
[2] = organism: Homo sapiens; experiment: Cytotoxicity against human D283 cells after 48 hrs by sulforhodamine B assay; format: functional, cell-based
[3] = test system: A673; experiment: Cytotoxicity against human A673 cells after 48 hrs by sulforhodamine B assay; format: functional, cell-based
[4] = test system: Hep293TT; experiment: Cytotoxicity against human Hep293TT cells after 48 hrs by sulforhodamine B assay; format: functional, cell-based
[5] = organism: Homo sapiens; experiment: Cytotoxicity against human SJCRH30 cells after 48 hrs by sulforhodamine B assay; format: functional, cell-based

CN1CCc2c[nH]c3c2c1cc1[o+]c2cc4c5c(c[nH]c5c2nc13)CCN4C
inactive: inhibition [1] | Activity [2] | Activity [3] | Activity [4] | Activity [5]

Cc1nc2c(cc1-c1ccc(O)cc1)cc1c3c(c[nH]c32)CCN1C
inactive: inhibition [1] | Activity [2] | Activity [3] | Activity [4] | Activity [5]
